US8206898B2, “RNA exit channel: target and method for inhibition of bacterial RNA polymerase” (priority 2003, dated 2012)

Tests used:
[1] = system: bacterial RNAP; conditions: literature; cited from earlier work
[2] = system: Gram-positive bacteria and Gram-negative bacteria; conditions: literature (Coronelli et al., 1975); cited from earlier work
[3] = system: Escherichia coli hyper-permeable strain D21f2/TolC; test: MIC of Lpm for Escherichia coli Lpm^R isolates from saturation mutagenesis and selection; type: cell-based
Protocol: To define systematically determinants for function of Lpm, saturation mutagenesis of Escherichia coli rpoB and rpoC was performed, and Lpm^R mutants were isolated and characterized (targeting codons or residues located within 20 Å of Bacillus subtilis Lpm^R sites in the three-dimensional structure of RNAP; methods as in Mukhopadhyay, et al., (2004) Mol. Cell, in press, except that selection was performed in hyper-permeable strain D21f2/TolC (rfa tolC; Fralick et al., (1994) J. Bacteriol. 176, 6404-6406)). 24 independent single-substitution Lpm^r mutants were identified (Table 2). The substitution sites define an approximately 20 Å×20 Å continuous surface, located within the RNA-exit-channel, spanning the target, and containing each residue of the target (i.e., residues 1251, 1256, and 1321 of β and residues 248-249 of β′; Table 2). Substitution sites corresponding to substitution sites in the Bacillus subtilis Lpm^R mutants described above were among those identified (i.e., residue 1256 of β and residues 249 and 337 of β′; Tables 1, 2).

[4] = biological target: RNAP-promoter open complex (RNAP holoenzyme, lacUV5-12 DNA fragment) (Escherichia coli, UniProt P0A8T7+P0A8V2); test: Electrophoretic mobility-shift analysis of open-complex formation; type: biochemical; conditions: 0-100 μm Lpm, added to RNAP before addition of the promoter DNA; FIG. 3
Chain of RNAP-promoter open complex (RNAP holoenzyme, lacUV5-12 DNA fragment) (P0A7Z4 whole entry, the tested form may be a part): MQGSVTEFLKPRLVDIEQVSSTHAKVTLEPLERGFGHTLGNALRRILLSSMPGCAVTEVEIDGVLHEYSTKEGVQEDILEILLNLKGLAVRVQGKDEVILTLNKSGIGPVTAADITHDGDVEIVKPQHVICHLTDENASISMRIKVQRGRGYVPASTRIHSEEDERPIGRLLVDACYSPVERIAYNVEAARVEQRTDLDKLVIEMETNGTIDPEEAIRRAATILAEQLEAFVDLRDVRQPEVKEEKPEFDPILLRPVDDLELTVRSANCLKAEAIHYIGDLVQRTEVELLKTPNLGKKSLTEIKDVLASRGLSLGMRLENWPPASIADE
Chain of RNAP-promoter open complex (RNAP holoenzyme, lacUV5-12 DNA fragment) (P0A8V2 whole entry, the tested form may be a part): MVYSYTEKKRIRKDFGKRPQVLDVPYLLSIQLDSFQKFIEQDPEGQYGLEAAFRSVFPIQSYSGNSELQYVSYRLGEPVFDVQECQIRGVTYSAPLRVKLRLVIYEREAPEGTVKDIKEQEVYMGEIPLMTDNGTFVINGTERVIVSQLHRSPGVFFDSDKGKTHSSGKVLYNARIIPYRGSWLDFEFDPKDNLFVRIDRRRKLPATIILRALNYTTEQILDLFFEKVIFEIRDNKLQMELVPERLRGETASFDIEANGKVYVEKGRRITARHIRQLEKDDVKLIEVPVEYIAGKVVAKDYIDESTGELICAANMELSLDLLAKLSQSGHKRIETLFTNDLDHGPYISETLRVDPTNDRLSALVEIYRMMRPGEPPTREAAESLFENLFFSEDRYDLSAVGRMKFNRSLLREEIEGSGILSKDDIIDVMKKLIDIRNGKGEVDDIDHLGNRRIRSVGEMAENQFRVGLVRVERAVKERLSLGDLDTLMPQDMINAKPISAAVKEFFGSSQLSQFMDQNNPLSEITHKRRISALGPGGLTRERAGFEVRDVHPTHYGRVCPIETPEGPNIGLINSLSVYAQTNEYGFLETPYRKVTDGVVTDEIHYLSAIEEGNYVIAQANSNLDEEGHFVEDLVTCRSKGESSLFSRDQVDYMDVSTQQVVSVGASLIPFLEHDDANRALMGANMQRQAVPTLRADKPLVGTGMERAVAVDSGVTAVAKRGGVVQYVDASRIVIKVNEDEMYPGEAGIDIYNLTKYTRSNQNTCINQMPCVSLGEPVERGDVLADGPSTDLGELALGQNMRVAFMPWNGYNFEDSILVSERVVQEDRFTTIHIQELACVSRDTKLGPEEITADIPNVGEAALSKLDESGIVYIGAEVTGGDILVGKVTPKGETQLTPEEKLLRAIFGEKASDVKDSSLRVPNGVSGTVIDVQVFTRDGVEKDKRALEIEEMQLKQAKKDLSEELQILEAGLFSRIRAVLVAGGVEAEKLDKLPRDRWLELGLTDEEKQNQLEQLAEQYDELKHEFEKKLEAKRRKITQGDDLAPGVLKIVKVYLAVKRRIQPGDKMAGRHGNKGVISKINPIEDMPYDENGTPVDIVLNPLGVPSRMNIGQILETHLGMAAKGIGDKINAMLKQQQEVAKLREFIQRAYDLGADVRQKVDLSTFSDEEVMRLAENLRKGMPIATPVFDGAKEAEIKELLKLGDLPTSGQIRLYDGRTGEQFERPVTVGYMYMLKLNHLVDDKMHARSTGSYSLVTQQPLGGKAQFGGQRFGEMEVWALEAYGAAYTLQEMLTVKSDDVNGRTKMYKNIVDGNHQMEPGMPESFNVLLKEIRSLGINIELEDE
Chain of RNAP-promoter open complex (RNAP holoenzyme, lacUV5-12 DNA fragment) (P0A800 whole entry, further chain, the tested form may be a part): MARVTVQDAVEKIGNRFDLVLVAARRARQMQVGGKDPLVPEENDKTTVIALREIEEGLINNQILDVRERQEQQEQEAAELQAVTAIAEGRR
Chain of RNAP-promoter open complex (RNAP holoenzyme, lacUV5-12 DNA fragment) (P00579 whole entry, further chain, the tested form may be a part): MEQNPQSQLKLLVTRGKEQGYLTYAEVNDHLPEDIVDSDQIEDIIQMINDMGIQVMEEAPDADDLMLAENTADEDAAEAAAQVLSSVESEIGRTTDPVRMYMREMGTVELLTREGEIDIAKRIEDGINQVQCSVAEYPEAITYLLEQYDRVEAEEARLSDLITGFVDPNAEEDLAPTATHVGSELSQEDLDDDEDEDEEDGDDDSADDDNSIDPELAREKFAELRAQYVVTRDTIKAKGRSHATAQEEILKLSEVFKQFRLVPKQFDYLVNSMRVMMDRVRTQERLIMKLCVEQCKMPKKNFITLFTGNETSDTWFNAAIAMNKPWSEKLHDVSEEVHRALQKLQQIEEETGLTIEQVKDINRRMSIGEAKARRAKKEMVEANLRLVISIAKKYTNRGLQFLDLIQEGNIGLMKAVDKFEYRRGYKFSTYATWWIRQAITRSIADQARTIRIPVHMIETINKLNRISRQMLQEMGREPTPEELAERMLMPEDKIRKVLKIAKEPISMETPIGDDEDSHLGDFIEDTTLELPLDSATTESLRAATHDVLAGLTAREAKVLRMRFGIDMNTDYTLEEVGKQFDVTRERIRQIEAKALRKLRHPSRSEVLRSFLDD
Chain of RNAP-promoter open complex (RNAP holoenzyme, lacUV5-12 DNA fragment) (P0A8T7 whole entry, the tested form may be a part): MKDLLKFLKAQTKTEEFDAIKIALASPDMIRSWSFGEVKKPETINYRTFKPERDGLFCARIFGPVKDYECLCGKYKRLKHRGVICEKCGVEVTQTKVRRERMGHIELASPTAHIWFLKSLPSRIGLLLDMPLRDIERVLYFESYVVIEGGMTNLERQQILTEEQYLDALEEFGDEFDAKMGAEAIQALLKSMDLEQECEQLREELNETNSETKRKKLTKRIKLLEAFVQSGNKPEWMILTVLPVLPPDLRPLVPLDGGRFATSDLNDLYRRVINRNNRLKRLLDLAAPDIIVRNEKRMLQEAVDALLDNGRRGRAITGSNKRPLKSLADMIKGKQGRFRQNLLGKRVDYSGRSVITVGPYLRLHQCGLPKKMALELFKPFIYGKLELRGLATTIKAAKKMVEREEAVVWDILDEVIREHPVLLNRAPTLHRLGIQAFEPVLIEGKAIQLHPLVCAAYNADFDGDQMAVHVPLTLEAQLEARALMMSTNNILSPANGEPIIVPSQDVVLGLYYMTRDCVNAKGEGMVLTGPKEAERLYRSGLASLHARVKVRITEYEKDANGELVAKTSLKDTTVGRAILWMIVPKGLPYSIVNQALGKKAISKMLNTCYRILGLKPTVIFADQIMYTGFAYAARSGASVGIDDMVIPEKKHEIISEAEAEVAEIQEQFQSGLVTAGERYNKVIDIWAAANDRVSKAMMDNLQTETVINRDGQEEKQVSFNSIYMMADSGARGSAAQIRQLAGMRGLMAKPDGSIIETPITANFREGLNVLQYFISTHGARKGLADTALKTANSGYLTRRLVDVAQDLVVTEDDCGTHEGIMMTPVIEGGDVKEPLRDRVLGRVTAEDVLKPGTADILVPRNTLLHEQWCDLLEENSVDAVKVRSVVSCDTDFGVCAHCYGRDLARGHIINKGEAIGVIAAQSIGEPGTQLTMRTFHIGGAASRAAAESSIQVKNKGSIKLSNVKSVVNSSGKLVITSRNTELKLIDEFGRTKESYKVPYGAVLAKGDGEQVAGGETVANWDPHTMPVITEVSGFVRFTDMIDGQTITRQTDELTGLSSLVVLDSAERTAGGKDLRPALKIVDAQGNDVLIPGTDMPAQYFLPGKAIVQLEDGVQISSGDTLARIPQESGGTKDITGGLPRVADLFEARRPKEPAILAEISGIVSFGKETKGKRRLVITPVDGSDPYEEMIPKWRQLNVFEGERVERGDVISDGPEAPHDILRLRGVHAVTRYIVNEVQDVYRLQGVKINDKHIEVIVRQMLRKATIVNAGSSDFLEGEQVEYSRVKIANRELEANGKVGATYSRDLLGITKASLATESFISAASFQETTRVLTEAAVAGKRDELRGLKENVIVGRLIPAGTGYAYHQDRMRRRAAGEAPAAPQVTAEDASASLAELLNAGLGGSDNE
Protocol: To determine whether Lpm inhibits steps in transcription up to and including formation of the RNAP-promoter open complex, electrophoretic mobility-shift experiments were performed. The analysis of open-complex formation was performed as follows: reaction mixtures (20 μl) contained 100 nM RNAP holoenzyme, 20 nM fluorochrome-labeled DNA fragment lacUV5-12 (Cy5, +26) (Mukhopadhyay et al., 2001), and 0-100 μm Lpm in TB (50 mM Tris-HCl (pH 8.0), 100 mM KCl, 10 mM MgCl2, 1 mM dithiothreitol, 10 μg/ml bovine serum albumin, and 5% glycerol), added before or after the DNA. Following 15 min at 37° C., 0.5 μl 1 mg/ml heparin was added (to disrupt non-specific complexes), and, following a further 2 minutes at 37° C., reaction mixtures were applied to 5% polyacrylamide slab gels (30:1 acrylamide/bisacrylamide; 6×9×0.1 cm) and electrophoresed in 90 mM Tris-borate (pH 8.0) and 0.2 mM EDTA (20 V/cm; 30 min at 37° C.) and analyzed using a fluorescence scanner (Storm 860; Molecular Dynamics).

Substance: lipiarmycin [Lpm]
- inhibition of bacterial RNAP [1]: inhibits bacterial RNAP
- antibacterial effectiveness [2]: effective against both Gram-positive bacteria and Gram-negative bacteria
- MIC (mg/ml) (wild-type = 1) ([3]; RpoB 1251 Tyr→Phe): 10 fold relative to wild-type
- MIC (mg/ml) (wild-type = 1) ([3]; RpoB 1256 Gln→Glu): 10 fold relative to wild-type
- MIC (mg/ml) (wild-type = 1) ([3]; RpoB 1256 Gln→Leu): 5 fold relative to wild-type
- MIC (mg/ml) (wild-type = 1) ([3]; RpoB 1302 Thr→Pro): 5 fold relative to wild-type
- MIC (mg/ml) (wild-type = 1) ([3]; RpoB 1318 Gly→Ser): 5 fold relative to wild-type
- MIC (mg/ml) (wild-type = 1) ([3]; RpoB 1319 Met→Arg): 10 fold relative to wild-type
- MIC (mg/ml) (wild-type = 1) ([3]; RpoB 1319 Met→Lys): 5 fold relative to wild-type
- MIC (mg/ml) (wild-type = 1) ([3]; RpoB 1321 Glu→Val): 5 fold relative to wild-type
- MIC (mg/ml) (wild-type = 1) ([3]; RpoB 1325 Val→Ala): 10 fold relative to wild-type
- MIC (mg/ml) (wild-type = 1) ([3]; RpoB 1325 Val→Leu): 5 fold relative to wild-type
- MIC (mg/ml) (wild-type = 1) ([3]; RpoC 248 Asp→Tyr): 5 fold relative to wild-type
- MIC (mg/ml) (wild-type = 1) ([3]; RpoC 249 Leu→Arg): 5 fold relative to wild-type
- MIC (mg/ml) (wild-type = 1) ([3]; RpoC 337 Arg→Hys): 5 fold relative to wild-type
- MIC (mg/ml) (wild-type = 1) ([3]; RpoC 337 Arg→Ser): 5 fold relative to wild-type
- MIC (mg/ml) (wild-type = 1) ([3]; wild-type E. coli): (wild-type = 1) mg/ml
- formation of the RNAP-promoter open complex [4]: inhibits formation of the RNAP-promoter open complex
